Laboratory results published in patent US5219870A, “Omeprazole compositions designed for administration in rectum” (priority 1990, dated 1993).
Several values for one entry are separate records, joined by “and”; a condition that tells them apart may be missing. Equal entries are not always repeated. Where two headings read alike, the source gives them in different places.

Tests used:
[1] = cited from earlier work
[2] = Animal Experiment: serum concentration and bioavailability of OMP in rabbits (I.V., oral, rectum); assay type: in vivo, albino rabbits; conditions: 10 mg/kg; for bioavailability: BA (bioavailability)
Description: Using the same method as in Reference 1, one composition using water-Soluble base was manufactured by the following formula; 20 mg OMP. 10 mg arginine and 970 mg PEG 4000, and another composition using lipid-soluble base was manufactured by the following formula; 20 mg OMP, 10 mg arginine and 970 mg Witepsol H-15.
Object: 36 male healthy albino rabbits weighing 1.5-2.3 kg.
Method: before fasting, feed and water were freely provided for eating and rabbits were confined to a wire-box while giving them feed in a constant condition for 4 days. After that, their fasting was made for 48 hours (during the fasting, the rabbits could freely drink 10% dextrose solution.)
For comparison test, 4 mg/ml I.V. solution was manufactured in advance by mixing 400 mg OMP, 20 ml polyethylene glycol 4000, and 80 ml buffer solution of 0.1 mol sodium bicarbonate. 5 ml solution per rabbit was administered to its ear's vein.
Then, through the esophagus of rabbit, Levine tube in diameter of 5 mm was inserted by 30 cm for administering oral OMP capsules wrapped in paraffin film. To reduce friction, vaseline was applied around the surface of the tube and through a syringe connected to the opposite end of the tube, 30 ml water was injected and, by the water pressure, paraffin film was broken to administer the capsule into intestine.
As the feces of the rabbit were not completely removable even in 48-hour fasting, Levine tube having a thickness of 5 mm was used to thrust feces up to the upper part of rectum by 15 cm for the separate of administration of said two kinds of compositions. Then, inserted into the anus, was a cotton wrapped in vinyl tape having a length of 2 cm, fixed it with a clip so as to prevent any leaking of drug solution.
By using xylene, the venous blood vessel of rabbit's ear was extended to collect some venous blood with a heparinized 3 cc syringe. Said syringe was already treated by soaking its wall with 1000 I.U. heparin. Then, 3 cc of said collected blood sample (10,000 rpm, 10 secs) was centrigued to obtain 1 ml plasma.
Add 1 ml of said plasma sample to […] intra-standard solution, 3 ml dichloromethane, 3 ml hexaine and 2 ml of 0.1 mol sodium bicarbonate buffer solution. Then, after agitation for 30 secs, centrifuge this mixture in 2000 rpm for 5 mins to separate into organic layer (upper layer) and plasma layer (lower layer).
Put the centrifuged test tube into ice-contained methanol to freeze the plasma layer. Thereafter, take 5 ml organic solvent from the said solution and, under reduced pressure, evaporate the organic solvent by nitrogen gas. Then add 300 μl mobile phase into the residue and after agitation for 30 secs again, centrifuge the mixture in 2000 rpm for 2 mins and conduct the assay by the HPLC analysis (injected 50 μl) through the comparison of height ratio with standard solution.
Cmax is a peak serum concentration;
AUC is an area under the curve describing serum concentration-time; and […]

[3] = OMP Stability Based Upon Kinds of Stabilizer (colour change under severe condition); assay type: physicochemical; conditions: Reference 2 result in words
Excerpt: As shown in the following table 2, PEG 4000 and Witepsol H-15 were used as bases for the manufacture of said composition; as a basic amino acid, arginine was used. The stability of said manufactured compositions was observed under a severe condition. As a diffusing medium, micro crystalline cellulose (brandname: Avicel) was used, while using sodium laurylsulfate as a releasing agent.

[4] = OMP Stability Based Upon Kinds of Base (colour change at room temperature); conditions: Reference 1 result in words
[5] = rabbit, in vivo, po, serum concentration

SMILES: COc1ccc2[nH]c([S+]([O-])Cc3ncc(C)c(OC)c3C)nc2c1 (centres unmarked) [OMP, Omeprazole]
- half life ([1]; neutral pH): about 14 hrs
- decomposition ([1]; pH less than 4.0): rapid decomposition
- stability ([1]; pH more than 7.0): very stable
- serum concentration ([2]; I.V., 20 mg OMP per 2 kg, 1 min, individual animals): 110.0 µg/mL and 100.0 µg/mL and 91.5 µg/mL and 99.0 µg/mL
- serum concentration ([2]; I.V., 20 mg OMP per 2 kg, 5 min, individual animals): 47.8 µg/mL and 63.3 µg/mL and 58.7 µg/mL and 56.5 µg/mL
- serum concentration ([2]; I.V., 20 mg OMP per 2 kg, 15 min, individual animals): 23.8 µg/mL and 36.8 µg/mL and 24.5 µg/mL
- serum concentration ([2]; I.V., 20 mg OMP per 2 kg, 30 min, individual animals): 21.0 µg/mL and 16.7 µg/mL and 16.2 µg/mL
- serum concentration ([2]; I.V., 20 mg OMP per 2 kg, 60 min, individual animals): 9.1 µg/mL and 11.7 µg/mL and 6.5 µg/mL
- serum concentration ([2]; I.V., 20 mg OMP per 2 kg, 120 min, individual animals): 4.6 μg/ml and 4.2 μg/ml and 4.4 μg/ml (2×)
- serum concentration ([2]; I.V., 20 mg OMP per 2 kg, 180 min, individual animals): 2.2 µg/mL and 2.1 µg/mL and 2.0 µg/mL
- serum concentration ([2]; oral, 20 mg OMP per 2 kg, 1 hr, individual animals, 60 min): 0.300 µg/mL and 0.492 µg/mL and 0.270 µg/mL and 0.295 µg/mL
- serum concentration ([2]; oral, 20 mg OMP per 2 kg, 4 hr, individual animals, 240 min): 0.375 µg/mL and 0.376 µg/mL
- serum concentration ([2]; oral, 20 mg OMP per 2 kg, 5 hr, individual animals, 300 min): 0.432 µg/mL
- serum concentration ([2]; oral, 20 mg OMP per 2 kg, 7 hr, individual animals, 420 min): 0.450 µg/mL and 0.409 µg/mL and 0.506 µg/mL and 0.400 µg/mL
- serum concentration ([2]; oral, 20 mg OMP per 2 kg, 9 hr, individual animals, 540 min): 0.360 µg/mL and 0.373 µg/mL and 0.365 µg/mL
- serum concentration ([2]; oral, 20 mg OMP per 2 kg, 11 hr, individual animals, 660 min): 0.038 µg/mL and 0.070 µg/mL and 0.171 µg/mL and 0.176 µg/mL and 0.053 µg/mL
- Tmax ([2]; oral, 20 mg OMP per 2 kg, individual animals): 5 h
- AUC ([2]; rabbit, in vivo, iv): 33200 ng·h/mL
- AUC ([2]; rabbit, in vivo, iv, average): 35200 ng·h/mL
- concentration at 0.25 h ([2]; rabbit, in vivo, iv, serum concentration): 16400 ng/mL
- serum concentration ([2]; rabbit, in vivo, po, 4 h): 0.531 µg/mL
- AUC ([2]; rabbit, in vivo, po): 6070 ng·h/mL
- AUC ([2]; rabbit, in vivo, po, average): 5980 ng·h/mL
- bioavailability ([2]; rabbit, in vivo, po): 17.2%
- bioavailability ([2]; rabbit, in vivo, po, average): 17%
- Cmax ([2]; rabbit, in vivo, po): 591 ng/mL
- Cmax ([2]; rabbit, in vivo, po, average): 598 ng/mL
- concentration at 4 h [2, 5]: 591 ng/mL
- concentration at 5 h [2, 5]: 527 ng/mL
- concentration at 9 h [2, 5]: 356 ng/mL
- concentration at 1 min ([2]; rabbit, serum, iv, I.V., 20 mg OMP per 2 kg, 1 min, average, read-out: serum concentration, average): 101000 ng/mL
- concentration at 1 min ([2]; rabbit, serum, iv, I.V., 20 mg OMP per 2 kg, 1 min, individual animals, read-out: serum concentration): 104000 ng/mL
- concentration at 5 min ([2]; rabbit, serum, iv, I.V., 20 mg OMP per 2 kg, 5 min, average, read-out: serum concentration, average): 54400 ng/mL
- concentration at 5 min ([2]; rabbit, serum, iv, I.V., 20 mg OMP per 2 kg, 5 min, individual animals, read-out: serum concentration): 45900 ng/mL
- concentration at 0.25 h ([2]; rabbit, serum, iv, I.V., 20 mg OMP per 2 kg, 15 min, average, read-out: serum concentration, average): 25600 ng/mL
- concentration at 0.25 h ([2]; rabbit, serum, iv, I.V., 20 mg OMP per 2 kg, 15 min, individual animals, read-out: serum concentration): 26400 ng/mL
- concentration at 0.5 h ([2]; rabbit, serum, iv, I.V., 20 mg OMP per 2 kg, 30 min, average, read-out: serum concentration, average): 16700 ng/mL
- concentration at 0.5 h ([2]; rabbit, serum, iv, I.V., 20 mg OMP per 2 kg, 30 min, individual animals, read-out: serum concentration): 12800 ng/mL
- concentration at 1 h ([2]; rabbit, serum, iv, I.V., 20 mg OMP per 2 kg, 60 min, average, read-out: serum concentration, average): 8800 ng/mL
- concentration at 1 h ([2]; rabbit, serum, iv, I.V., 20 mg OMP per 2 kg, 60 min, individual animals, read-out: serum concentration): 7800 ng/mL
- concentration at 2 h ([2]; rabbit, serum, iv, I.V., 20 mg OMP per 2 kg, 120 min, average, read-out: serum concentration, average): 4700 ng/mL
- concentration at 2 h ([2]; rabbit, serum, iv, I.V., 20 mg OMP per 2 kg, 120 min, individual animals, read-out: serum concentration): 5800 ng/mL
- concentration at 3 h ([2]; rabbit, serum, iv, I.V., 20 mg OMP per 2 kg, 180 min, average, read-out: serum concentration, average): 2100 ng/mL
- concentration at 3 h ([2]; rabbit, serum, iv, I.V., 20 mg OMP per 2 kg, 180 min, individual animals, read-out: serum concentration): 2000 ng/mL
- concentration at 11 h ([2]; rabbit, serum, po, 20 mg OMP per 2 kg, 11 hr, average): 102 ng/mL
- concentration at 1 h ([2]; rabbit, serum, po, oral, 20 mg OMP per 2 kg, 1 hr, average, read-out: serum concentration, average): 330 ng/mL
- concentration at 1 h ([2]; rabbit, serum, po, oral, 20 mg OMP per 2 kg, 1 hr, individual animals, read-out: serum concentration): 293 ng/mL
- concentration at 2 h ([2]; rabbit, serum, po, oral, 20 mg OMP per 2 kg, 2 hr, average, read-out: serum concentration, average): 455 ng/mL
- concentration at 2 h ([2]; rabbit, serum, po, oral, 20 mg OMP per 2 kg, 2 hr, individual animals, read-out: serum concentration): 369 ng/mL
- concentration at 3 h ([2]; rabbit, serum, po, oral, 20 mg OMP per 2 kg, 3 hr, average, read-out: serum concentration, average): 413 ng/mL
- concentration at 3 h ([2]; rabbit, serum, po, oral, 20 mg OMP per 2 kg, 3 hr, individual animals, read-out: serum concentration): 425 ng/mL
- concentration at 4 h ([2]; rabbit, serum, po, oral, 20 mg OMP per 2 kg, 4 hr, average, read-out: serum concentration, average): 477 ng/mL
- concentration at 4 h ([2]; rabbit, serum, po, oral, 20 mg OMP per 2 kg, 4 hr, individual animals, read-out: serum concentration): 410 ng/mL
- concentration at 5 h ([2]; rabbit, serum, po, oral, 20 mg OMP per 2 kg, 5 hr, average, read-out: serum concentration, average): 550 ng/mL
- concentration at 5 h ([2]; rabbit, serum, po, oral, 20 mg OMP per 2 kg, 5 hr, individual animals, read-out: serum concentration): 447 ng/mL
- concentration at 7 h ([2]; rabbit, serum, po, oral, 20 mg OMP per 2 kg, 7 hr, average, read-out: serum concentration, average): 457 ng/mL
- concentration at 7 h ([2]; rabbit, serum, po, oral, 20 mg OMP per 2 kg, 7 hr, individual animals, read-out: serum concentration): 521 ng/mL
- concentration at 9 h ([2]; rabbit, serum, po, oral, 20 mg OMP per 2 kg, 9 hr, average, read-out: serum concentration, average): 357 ng/mL
- concentration at 9 h ([2]; rabbit, serum, po, oral, 20 mg OMP per 2 kg, 9 hr, individual animals, read-out: serum concentration): 341 ng/mL
- Tmax ([2]; rabbit, serum, po, oral, 20 mg OMP per 2 kg, individual animals, read-out: Tmax): 4 h

SMILES: N=C(N)NCCC[C@H](N)C(=O)O [arginine]
- stabilizing effect [3]: better stabilizing effect than sodium phosphate
- stability / contribution to stabilization [4]: stability was more increased
